Calls of active or inactive are those of the source. The rule behind the calls is not given here.

The target in data set [1] is T1, GABA-A receptor; alpha-1/beta-2/gamma-2 (Homo sapiens) (UniProt P14867+P47870+P18507). Kind of data set: (§1) Agonist activity at recombinant human GABA-A alpha1beta2gamma2S receptor transiently expressed in human tsA201 cells incubated for 30 mins and measured up to 90 secs by FMP dye based FLIPR membrane potential blue assay. In kind it is cell-based.
Data set [2] deals with T2, GABA-A receptor; alpha-1/beta-2/gamma-2 (Homo sapiens, UniProt P14867+P47870+P18507).
T2 sequence (P14867 whole entry): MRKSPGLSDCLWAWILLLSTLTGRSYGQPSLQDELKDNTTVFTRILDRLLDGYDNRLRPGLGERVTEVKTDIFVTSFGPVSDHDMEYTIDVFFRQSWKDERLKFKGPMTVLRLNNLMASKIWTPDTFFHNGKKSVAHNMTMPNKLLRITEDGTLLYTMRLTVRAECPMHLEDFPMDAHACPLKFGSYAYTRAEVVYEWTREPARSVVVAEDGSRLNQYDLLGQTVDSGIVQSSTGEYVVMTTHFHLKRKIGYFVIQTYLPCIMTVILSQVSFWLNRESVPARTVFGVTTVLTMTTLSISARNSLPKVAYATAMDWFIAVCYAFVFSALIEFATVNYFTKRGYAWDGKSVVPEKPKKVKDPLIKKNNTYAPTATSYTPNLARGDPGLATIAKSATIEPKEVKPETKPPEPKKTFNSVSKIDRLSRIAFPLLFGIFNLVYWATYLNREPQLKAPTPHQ
T2 sequence (P47870 whole entry): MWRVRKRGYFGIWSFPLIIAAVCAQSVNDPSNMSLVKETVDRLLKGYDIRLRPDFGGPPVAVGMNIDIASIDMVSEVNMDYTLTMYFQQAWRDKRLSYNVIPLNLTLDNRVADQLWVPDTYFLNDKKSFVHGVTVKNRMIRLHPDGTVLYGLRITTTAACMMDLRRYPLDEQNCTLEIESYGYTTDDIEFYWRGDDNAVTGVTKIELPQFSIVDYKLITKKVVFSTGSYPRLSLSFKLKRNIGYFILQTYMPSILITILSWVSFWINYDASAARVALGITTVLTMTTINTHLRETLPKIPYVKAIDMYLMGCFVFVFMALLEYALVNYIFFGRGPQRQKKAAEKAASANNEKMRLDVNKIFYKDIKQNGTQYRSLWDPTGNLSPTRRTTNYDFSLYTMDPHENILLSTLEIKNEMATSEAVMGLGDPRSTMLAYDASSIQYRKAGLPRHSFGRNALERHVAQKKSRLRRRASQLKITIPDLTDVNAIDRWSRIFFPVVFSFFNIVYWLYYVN
T2 sequence (P18507 whole entry): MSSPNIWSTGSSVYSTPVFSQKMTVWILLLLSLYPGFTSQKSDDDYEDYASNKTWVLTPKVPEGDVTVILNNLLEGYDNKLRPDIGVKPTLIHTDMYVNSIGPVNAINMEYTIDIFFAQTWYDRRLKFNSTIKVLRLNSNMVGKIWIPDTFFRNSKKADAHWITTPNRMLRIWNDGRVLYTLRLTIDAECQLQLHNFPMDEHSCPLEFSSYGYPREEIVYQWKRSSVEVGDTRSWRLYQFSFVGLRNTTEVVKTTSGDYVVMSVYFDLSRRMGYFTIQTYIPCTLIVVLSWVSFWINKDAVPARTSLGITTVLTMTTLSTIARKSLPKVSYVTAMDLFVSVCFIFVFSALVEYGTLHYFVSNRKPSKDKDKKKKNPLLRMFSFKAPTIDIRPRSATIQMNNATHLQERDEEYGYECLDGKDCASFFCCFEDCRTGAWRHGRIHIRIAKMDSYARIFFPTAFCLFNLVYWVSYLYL
The description is as §1. Type of data set: cell-based.

A short description of data set [3]: cells. Type of data set: cell-based. Conditions: Homo sapiens, tsA201, 0.5 h.
For data set [4], the target named is T3, Gamma-aminobutyric acid receptor subunit rho-1 (Homo sapiens, UniProt P24046). The experiment in a line: Antagonist activity at recombinant human GABA-A rho-1 receptor transiently expressed in human tsA201 cells incubated for 30 mins and measured up to 90 secs by FMP dye based FLIPR membrane potential blue assay. Type of data set: cell-based.
Data set [5] has as its target T4, Gamma-aminobutyric acid receptor subunit alpha-4/beta-2/gamma-2 (Homo sapiens, UniProt P47870+P18507+P48169). Kind of data set: (§2) Agonist activity at recombinant human GABA-A alpha4beta2gamma2S receptor transiently expressed in human tsA201 cells incubated for 30 mins and measured up to 90 secs by FMP dye based FLIPR membrane potential blue assay. Type of data set: cell-based.

The target in data set [6] is GABA-A receptor; anion channel. Kind of data set: Displacement of [3H]muscimol from GABA(A) receptor in Sprague-Dawley rat cortical synaptic membranes by liquid scintillation counting. Background: In a radioligand displacement assay an active substance lowers the binding of a labelled ligand.
Data set [7] deals with Gamma-aminobutyric acid receptor subunit alpha-5/beta-2/gamma-2 (Homo sapiens) (UniProt P47870+P18507+P31644). Kind of data set: Agonist activity at recombinant human GABA-A alpha5beta2gamma2S receptor transiently expressed in human tsA201 cells assessed as GABA-induced maximum response incubated for 30 mins and measured up to 90 secs by FMP dye based FLIPR membrane potential blue assay relative to GABA. In kind it is cell-based.

Data set [8] addresses T4, Gamma-aminobutyric acid receptor subunit alpha-4/beta-2/gamma-2. Kind of data set: Agonist activity at recombinant human GABA-A alpha4beta2gamma2S receptor transiently expressed in human tsA201 cells at >= 300 uM incubated for 30 mins and measured up to 90 secs by FMP dye based FLIPR membrane potential blue assay. Type of data set: cell-based.
Data set [9] shares this target. The experiment in a line: Agonist activity at recombinant human GABA-A alpha4beta2gamma2S receptor transiently expressed in human tsA201 cells assessed as GABA-induced maximum response incubated for 30 mins and measured up to 90 secs by FMP dye based FLIPR membrane potential blue assay relative to GABA. Type of data set: cell-based.
Data set [10] concerns the target T3, Gamma-aminobutyric acid receptor subunit rho-1. The experiment in a line: Agonist activity at recombinant human GABA-A rho-1 receptor transiently expressed in human tsA201 cells at 300 uM incubated for 30 mins and measured up to 90 secs by FMP dye based FLIPR membrane potential blue assay. In kind it is cell-based.
The target in data set [11] is T5, Gamma-aminobutyric acid receptor subunit alpha-5/beta-2/gamma-2 (Homo sapiens, UniProt P18507+P31644+P47870).
T5 sequence (P47870 whole entry): T2 sequence (P47870 whole entry)
T5 sequence (P18507 whole entry): T2 sequence (P18507 whole entry)
T5 sequence (P31644 whole entry): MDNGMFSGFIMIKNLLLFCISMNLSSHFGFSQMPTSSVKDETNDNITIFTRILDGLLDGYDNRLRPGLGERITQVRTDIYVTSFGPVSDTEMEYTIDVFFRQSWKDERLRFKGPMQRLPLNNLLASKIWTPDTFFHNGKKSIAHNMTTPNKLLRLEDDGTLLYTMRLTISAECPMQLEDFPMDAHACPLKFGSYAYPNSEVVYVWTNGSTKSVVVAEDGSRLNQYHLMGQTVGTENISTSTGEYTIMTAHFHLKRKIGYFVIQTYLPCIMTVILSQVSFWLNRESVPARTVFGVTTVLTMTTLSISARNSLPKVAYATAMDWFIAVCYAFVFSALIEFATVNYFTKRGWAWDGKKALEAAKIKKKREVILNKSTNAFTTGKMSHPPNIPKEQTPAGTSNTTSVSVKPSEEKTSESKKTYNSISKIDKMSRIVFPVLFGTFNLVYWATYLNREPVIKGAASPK
Kind of data set: Agonist activity at recombinant human GABA-A alpha5beta2gamma2S receptor transiently expressed in human tsA201 cells incubated for 30 mins and measured up to 90 secs by FMP dye based FLIPR membrane potential blue assay. Type of data set: cell-based.

For data set [12], the species on record is Homo sapiens. Kind of data set: Agonist activity at recombinant human GABA-A alpha3beta2gamma2S receptor transiently expressed in human tsA201 cells assessed as GABA-induced maximum response incubated for 30 mins and measured up to 90 secs by FMP dye based FLIPR membrane potential blue assay relative to GABA. In kind it is cell-based.
Data set [13] addresses T1, GABA-A receptor; alpha-1/beta-2/gamma-2 (Homo sapiens). The experiment in a line: Agonist activity at recombinant human GABA-A alpha1beta2gamma2S receptor transiently expressed in human tsA201 cells at >= 100 uM incubated for 30 mins and measured up to 90 secs by FMP dye based FLIPR membrane potential blue assay. Type of data set: cell-based.
For data set [14] the target is unchanged. Kind of data set: Agonist activity at recombinant human GABA-A alpha1beta2gamma2S receptor transiently expressed in human tsA201 cells assessed as GABA-induced maximum response incubated for 30 mins and measured up to 90 secs by FMP dye based FLIPR membrane potential blue assay relative to GABA. Type of data set: cell-based.
The target in data set [15] is T6, GABA-A receptor; alpha-1/beta-2/gamma-2 (Homo sapiens, UniProt P14867+P18507+P47870).
T6 sequence (P14867 whole entry): T2 sequence (P14867 whole entry)
T6 sequence (P47870 whole entry): T2 sequence (P47870 whole entry)
T6 sequence (P18507 whole entry): T2 sequence (P18507 whole entry)
The description is as §1. Type of data set: cell-based.

The target of data set [16] is Gamma-aminobutyric acid receptor subunit alpha-4/beta-2/gamma-2 (Homo sapiens, UniProt P18507+P47870+P48169). The description is as §2. In kind it is cell-based.
The target in data set [17] is T3, Gamma-aminobutyric acid receptor subunit rho-1. The experiment in a line: Agonist activity at recombinant human GABA-A rho-1 receptor transiently expressed in human tsA201 cells assessed as GABA-induced maximum response incubated for 30 mins and measured up to 90 secs by FMP dye based FLIPR membrane potential blue assay relative to GABA. In kind it is cell-based.

For data set [18] the target is unchanged. Kind of data set: Agonist activity at recombinant human GABA-A rho-1 receptor transiently expressed in human tsA201 cells incubated for 30 mins and measured up to 90 secs by FMP dye based FLIPR membrane potential blue assay. In kind it is cell-based.
Data set [19] addresses T4, Gamma-aminobutyric acid receptor subunit alpha-4/beta-2/gamma-2. Kind of data set: Agonist activity at recombinant human GABA-A alpha4beta2gamma2S receptor transiently expressed in human tsA201 cells at >= 100 uM incubated for 30 mins and measured up to 90 secs by FMP dye based FLIPR membrane potential blue assay. In kind it is cell-based.
For data set [20], the species on record is Homo sapiens. Kind of data set: Agonist activity at recombinant human GABA-A alpha3beta2gamma2S receptor transiently expressed in human tsA201 cells at >= 100 uM incubated for 30 mins and measured up to 90 secs by FMP dye based FLIPR membrane potential blue assay. Type of data set: cell-based.
The nature of data set [21]: Ionization constant, pKa2 of the compound at 1 mM by potentiometric titration assay. In kind it is physicochemical.
For data set [22], the species on record is Homo sapiens.
The target of data set [23] is T3, Gamma-aminobutyric acid receptor subunit rho-1. The experiment in a line: Agonist activity at recombinant human GABA-A rho-1 receptor transiently expressed in human tsA201 cells at >= 100 uM incubated for 30 mins and measured up to 90 secs by FMP dye based FLIPR membrane potential blue assay. In kind it is cell-based.

T3 sequence (P24046 whole entry): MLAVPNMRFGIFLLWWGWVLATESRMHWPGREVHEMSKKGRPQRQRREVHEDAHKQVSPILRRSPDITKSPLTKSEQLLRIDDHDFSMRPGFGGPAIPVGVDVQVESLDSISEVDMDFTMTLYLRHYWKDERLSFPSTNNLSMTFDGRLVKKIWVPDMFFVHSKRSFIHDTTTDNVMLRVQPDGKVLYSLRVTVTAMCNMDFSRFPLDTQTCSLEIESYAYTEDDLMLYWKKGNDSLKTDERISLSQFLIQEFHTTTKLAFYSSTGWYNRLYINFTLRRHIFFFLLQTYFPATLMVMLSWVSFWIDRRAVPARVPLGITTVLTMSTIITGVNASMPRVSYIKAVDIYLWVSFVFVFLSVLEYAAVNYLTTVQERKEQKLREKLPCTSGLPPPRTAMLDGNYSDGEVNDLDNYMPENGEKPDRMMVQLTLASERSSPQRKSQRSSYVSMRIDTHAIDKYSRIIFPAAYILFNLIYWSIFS
Gamma-aminobutyric acid receptor subunit alpha-4/beta-2/gamma-2 (Homo sapiens, UniProt P18507+P47870+P48169), sequence (P48169 whole entry, one chain of several): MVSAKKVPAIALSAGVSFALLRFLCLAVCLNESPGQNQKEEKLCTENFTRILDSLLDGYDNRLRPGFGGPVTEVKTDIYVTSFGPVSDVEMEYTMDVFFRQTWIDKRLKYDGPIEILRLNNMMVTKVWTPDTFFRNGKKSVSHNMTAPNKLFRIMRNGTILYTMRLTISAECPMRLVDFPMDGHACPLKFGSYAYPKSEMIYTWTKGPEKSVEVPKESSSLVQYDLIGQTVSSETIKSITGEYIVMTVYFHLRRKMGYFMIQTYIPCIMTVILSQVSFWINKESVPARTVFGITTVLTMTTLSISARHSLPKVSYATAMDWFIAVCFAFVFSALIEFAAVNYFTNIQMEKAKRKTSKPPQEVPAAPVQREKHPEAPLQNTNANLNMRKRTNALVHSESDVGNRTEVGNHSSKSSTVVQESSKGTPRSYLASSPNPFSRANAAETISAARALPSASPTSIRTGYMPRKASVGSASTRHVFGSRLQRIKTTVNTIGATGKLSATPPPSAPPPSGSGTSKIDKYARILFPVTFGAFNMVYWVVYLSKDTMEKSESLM
T4 sequence (P48169 whole entry, one chain of several): as above

`CC1(CC(=O)O)CSC(N)=N1` (stereo not given): the pEC50 result in [1] and in data set [5] was “inactive” in each case. Moreover, the EC50 result was “Not Active” in data set [2]; 26 µM in data set [3] (read-out: EC50); 25.7 µM in [3] (read-out: pEC50 (converted)); “Not Active” in data set [5]; 4.5 µM in [11]. For the same molecule, in [4], the 50% inhibitory concentration (IC50) was 300 µM. In addition, the affinity in data set [6], expressed as Ki, was 2.2 µM. Moreover, the Rmax in [7] stood at 92%; in [12], 80%. The outcome in [8] and in [13] was Active. For the same molecule, the Rmax result in data set [9] and in [14] was “inactive” in each case. Further, the result in [10] was inactive.
On to `NC1=N[C@H](CC(=O)O)CS1`, for which the EC50 in data set [15] was 1.5 µM; in data set [3] (read-out: EC50), 0.37 µM; in data set [3] (read-out: pEC50 (converted)), 0.372 µM; in [16] (read-out: EC50), 0.59 µM; in data set [16] (read-out: pEC50 (converted)) it was 5.89 µM; in data set [18] (read-out: EC50) it was 5.4 µM. The EC50 in [11] was 0.12 µM. Moreover, in data set [6], the inhibition constant Ki stood at 0.059 µM. Moreover, the Rmax in data set [7] worked out at 104%; in data set [17], 75%; in data set [9], 105%; in data set [12] it was 98%; in data set [14], 97%.
Consider `Nc1nc(CC(=O)O)cs1`, for which the pEC50 entry in [1], in data set [5], in [18] and in data set [22] was “inactive” throughout. For the same molecule, the EC50 result was “Not Active” in [2], “Not Active” in data set [5], “Not Active” in data set [18] and 24 µM in [11]. The outcome in [19], in data set [20], in data set [13] and in data set [23] was Active. This molecule also had a Ki in [6] of 32 µM. In addition, in [7], the Rmax came out at 85%. Besides, the Rmax entry in [17], in [9], in [12] and in [14] was “inactive” throughout. The molecule also returned a pKa at 1000 µM in [21] of 6.08.
Turning to `O=C(O)Cc1c[nH]cn1` [IMIDAZOLE ACETIC ACID], the EC50 in data set [3] (read-out: EC50) is 8.1 µM; in data set [3] (read-out: pEC50 (converted)) it was 8.13 µM; in [16] (read-out: EC50), 19 µM; in data set [18] (read-out: EC50) it was 4.6 µM; in [11], 1.8 µM. The Rmax in data set [7] stood at 92%; in data set [17], 46%; in data set [9] it was 81%; in data set [12], 89%; in [14] it was 46%. Moreover, in data set [21], the pKa at 1000 µM worked out at 7.13. For the same molecule, in data set [23], the result was Active.

A word on the IC50: it is the concentration that gives 50% inhibition. The term Ki denotes a measure of affinity in units of concentration, obtained from inhibition or displacement. One may read the pKa as the negative logarithm of the acid dissociation constant. A higher pKa goes with a weaker acid or stronger base.

The record behind these values is ChEMBL document CHEMBL4396887, “Five-Membered N-Heterocyclic Scaffolds as Novel Amino Bioisosteres at γ-Aminobutyric Acid (GABA) Type A Receptors and GABA Transporters” (J Med Chem, 2019).
